Source: patent US6643591B1, “Use of computational and experimental data to model organic compound reactivity in cytochrome P450 mediated reactions and to optimize the design of pharmaceuticals” (University of Pittsburgh, priority 1998, dated 2003)
Values joined by “and” are separate entries in the source; they are usually repeats but may differ in a detail not shown here. Identical values can stand only once. Like-named read-outs stand apart in the source and are kept apart here. Marks after values point to notes of the source that are not given here.

What was measured:
CYP2B6 = molecular target: T1, CYP2B6 (Homo sapiens, UniProt P20813)
T1 sequence (P20813 1-491): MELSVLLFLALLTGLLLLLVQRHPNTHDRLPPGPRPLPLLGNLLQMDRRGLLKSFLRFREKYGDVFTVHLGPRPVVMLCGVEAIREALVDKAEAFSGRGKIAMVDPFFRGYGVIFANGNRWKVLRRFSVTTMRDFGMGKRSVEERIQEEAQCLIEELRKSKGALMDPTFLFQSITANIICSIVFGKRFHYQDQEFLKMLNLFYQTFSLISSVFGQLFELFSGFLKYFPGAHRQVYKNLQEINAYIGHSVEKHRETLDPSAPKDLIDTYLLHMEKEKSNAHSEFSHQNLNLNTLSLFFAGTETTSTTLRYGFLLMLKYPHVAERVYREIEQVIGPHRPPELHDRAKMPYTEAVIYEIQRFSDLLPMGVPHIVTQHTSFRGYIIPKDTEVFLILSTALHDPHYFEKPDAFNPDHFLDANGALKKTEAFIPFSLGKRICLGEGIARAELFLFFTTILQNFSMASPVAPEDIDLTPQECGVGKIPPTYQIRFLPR

CYP1A2 [1] = molecular target: T2, CYP1A2 (Homo sapiens, UniProt P05177)
T2 sequence (P05177 1-516): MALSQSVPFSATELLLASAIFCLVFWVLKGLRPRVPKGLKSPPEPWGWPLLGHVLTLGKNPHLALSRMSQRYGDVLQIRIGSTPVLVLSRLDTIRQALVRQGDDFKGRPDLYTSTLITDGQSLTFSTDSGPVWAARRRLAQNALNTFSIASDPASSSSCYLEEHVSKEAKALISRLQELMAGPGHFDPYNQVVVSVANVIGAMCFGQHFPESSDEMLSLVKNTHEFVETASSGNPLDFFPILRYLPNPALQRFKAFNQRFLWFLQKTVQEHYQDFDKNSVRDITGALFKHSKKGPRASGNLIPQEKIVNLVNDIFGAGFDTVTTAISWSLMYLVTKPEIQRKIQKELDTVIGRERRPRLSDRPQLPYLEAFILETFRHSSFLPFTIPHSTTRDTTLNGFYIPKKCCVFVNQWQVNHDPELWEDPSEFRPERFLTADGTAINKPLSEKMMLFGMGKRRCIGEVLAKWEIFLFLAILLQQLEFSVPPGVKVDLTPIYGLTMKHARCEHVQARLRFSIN

CYP2B1 = molecular target: T3, CYP2B1 (Rattus norvegicus, UniProt P00176)
T3 sequence (P00176 1-491): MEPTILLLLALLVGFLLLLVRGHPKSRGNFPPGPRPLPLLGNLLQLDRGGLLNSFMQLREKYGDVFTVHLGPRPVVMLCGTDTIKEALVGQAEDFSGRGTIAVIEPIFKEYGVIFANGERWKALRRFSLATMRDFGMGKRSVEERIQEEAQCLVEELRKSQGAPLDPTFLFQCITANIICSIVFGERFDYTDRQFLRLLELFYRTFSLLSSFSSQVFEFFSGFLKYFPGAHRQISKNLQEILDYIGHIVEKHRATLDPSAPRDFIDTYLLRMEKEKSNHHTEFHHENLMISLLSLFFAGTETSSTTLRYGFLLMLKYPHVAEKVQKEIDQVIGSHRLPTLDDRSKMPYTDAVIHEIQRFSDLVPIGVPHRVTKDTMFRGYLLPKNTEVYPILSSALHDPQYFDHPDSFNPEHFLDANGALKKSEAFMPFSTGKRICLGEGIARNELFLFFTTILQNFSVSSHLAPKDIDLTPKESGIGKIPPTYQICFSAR

CYP2C9 = CYP2C9 (Homo sapiens, UniProt P11712)
CYP2E1 = CYP2E1 (Homo sapiens, UniProt P05181)
CYP4B1 = CYP4B1 (Oryctolagus cuniculus, UniProt P15128)
CYP1A2 [2] = conditions: O-deethylation favored; cited from earlier work
CYP [3] = conditions: cited from earlier work
CYP [4] = experiment: Activation energy differences from experimental regioselectivity of substrates in rapid equilibrium; type: in vitro ADME; parameters: unit not given here; conditions: difference in activation energy calculated by the experimental regioselectivity
Source text: Five substrates shown to undergo rapid equilibrium between positions of metabolism have been used to prepare data for regression and then correlation with Eq. 1. The differences in activation energy calculated by the experimental regioselectivity of the substrates, along with the differences in AM1 activation enthalpies, are given in Table 1. Regression of the experimental data gives a slope correction for AM1 activation energies of 0.75±0.20.

P450cam = molecular target: T4, P450cam (Pseudomonas putida, UniProt P00183); experiment: Intramolecular isotope effects with purified P450cam; type: in vitro ADME, bacterial; conditions: benzylic hydroxylation, -CH2D (d1) substrate
T4 construct: made in house
Experimental: For the intramolecular isotope effect experiments herein, a substrate is chosen that contains at least two symmetrical sites, with at least one site, but not all, isotopically labeled. A single concentration of substrate is incubated with enzyme, and the ratio of labeled to unlabeled compound in the isotopic mixture of products (or the corresponding rates of formation of products) are used to calculate a KIE.
Construction of expression plasmids for P450cam, Pd, and PdR as well as protein expression and purification have been described previously (Shimoji et al. (1998) Biochemistry 37, 8848-52).
Enzyme incubations with monodeuterated toluenes and p-xylene-α-^2H1-α′-^2H1 were performed in triplicate at a single substrate concentration of 0.25 mM. […] The kinetic parameters for metabolism of the substituted toluenes were determined by GC-MS analysis of the M-(dimethylsilyl) derivative of the product benzyl alcohols (see below).

CYP [5] = experiment: Experimental product ratios for aromatic oxidation
Source text: These equations may be solved with the data in Table 4, which provides experimental data for aromatic oxidation reactions with a number of substrates.
Experimental metabolite ratios may also be used to parameterize the aromatic oxidation reaction in a theoretical model for CYP reactions. As with hydrogen atom abstraction discussed in the previous Examples, experimental ratios of aromatic oxidation to an alternate position may be determined using various CYP enzymes. These substrates were chosen based on their small size, the presence of an alternate position for metabolism, and their hydrophobicity.
In order for the substrates to be useful, the average of the rotation rates in the active sites should be rapid. […] Several human expressed CYP enzymes were used in these studies, including CYP1A1, 1A2, 2A6, 2B6, 2C8, 2C9, 2D6, 2E1, 3A4, and 3A5. The use of multiple enzymes insures that a reasonable average of any orientation preferences within the active site (see FIG. 1).

T4 sequence (P00183 2-415): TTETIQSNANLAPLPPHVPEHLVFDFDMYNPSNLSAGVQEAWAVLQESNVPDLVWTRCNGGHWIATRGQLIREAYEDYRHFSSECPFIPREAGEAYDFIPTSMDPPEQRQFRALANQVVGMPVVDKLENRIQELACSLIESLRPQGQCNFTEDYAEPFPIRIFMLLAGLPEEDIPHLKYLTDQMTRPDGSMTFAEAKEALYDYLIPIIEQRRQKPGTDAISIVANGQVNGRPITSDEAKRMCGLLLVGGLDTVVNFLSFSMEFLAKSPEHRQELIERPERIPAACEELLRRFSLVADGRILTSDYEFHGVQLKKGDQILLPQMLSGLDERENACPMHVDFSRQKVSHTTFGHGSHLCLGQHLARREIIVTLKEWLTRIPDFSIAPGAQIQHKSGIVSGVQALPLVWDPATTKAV
Sequence of CYP4B1 (P15128 whole entry): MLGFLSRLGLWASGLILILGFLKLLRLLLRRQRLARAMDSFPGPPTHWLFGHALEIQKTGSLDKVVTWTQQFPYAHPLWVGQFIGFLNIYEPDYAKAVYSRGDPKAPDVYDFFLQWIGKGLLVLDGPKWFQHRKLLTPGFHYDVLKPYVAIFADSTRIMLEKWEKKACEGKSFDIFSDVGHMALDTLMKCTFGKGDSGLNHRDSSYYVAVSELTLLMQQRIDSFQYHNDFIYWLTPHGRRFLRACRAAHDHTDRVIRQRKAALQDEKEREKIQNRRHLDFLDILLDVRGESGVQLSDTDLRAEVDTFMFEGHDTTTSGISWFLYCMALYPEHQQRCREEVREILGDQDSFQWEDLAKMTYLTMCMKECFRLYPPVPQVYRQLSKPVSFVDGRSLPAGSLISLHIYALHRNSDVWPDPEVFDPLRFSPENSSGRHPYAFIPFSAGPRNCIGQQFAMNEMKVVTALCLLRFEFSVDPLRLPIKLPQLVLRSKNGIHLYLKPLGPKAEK
Sequence of CYP2E1 (P05181 whole entry): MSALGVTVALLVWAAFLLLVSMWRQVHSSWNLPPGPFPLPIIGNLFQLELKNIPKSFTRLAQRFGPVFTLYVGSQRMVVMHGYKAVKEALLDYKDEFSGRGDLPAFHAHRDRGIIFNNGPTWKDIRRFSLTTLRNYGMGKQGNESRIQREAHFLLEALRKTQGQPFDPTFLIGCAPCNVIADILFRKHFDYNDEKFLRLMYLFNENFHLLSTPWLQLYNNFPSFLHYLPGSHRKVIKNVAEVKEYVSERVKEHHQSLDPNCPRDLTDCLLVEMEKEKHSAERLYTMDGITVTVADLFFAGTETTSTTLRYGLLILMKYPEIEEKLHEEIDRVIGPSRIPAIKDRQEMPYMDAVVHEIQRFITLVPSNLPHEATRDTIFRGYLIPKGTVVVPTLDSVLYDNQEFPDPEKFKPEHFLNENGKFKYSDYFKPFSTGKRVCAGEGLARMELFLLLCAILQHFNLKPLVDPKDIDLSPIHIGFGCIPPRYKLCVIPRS
Sequence of CYP2C9 (P11712 whole entry): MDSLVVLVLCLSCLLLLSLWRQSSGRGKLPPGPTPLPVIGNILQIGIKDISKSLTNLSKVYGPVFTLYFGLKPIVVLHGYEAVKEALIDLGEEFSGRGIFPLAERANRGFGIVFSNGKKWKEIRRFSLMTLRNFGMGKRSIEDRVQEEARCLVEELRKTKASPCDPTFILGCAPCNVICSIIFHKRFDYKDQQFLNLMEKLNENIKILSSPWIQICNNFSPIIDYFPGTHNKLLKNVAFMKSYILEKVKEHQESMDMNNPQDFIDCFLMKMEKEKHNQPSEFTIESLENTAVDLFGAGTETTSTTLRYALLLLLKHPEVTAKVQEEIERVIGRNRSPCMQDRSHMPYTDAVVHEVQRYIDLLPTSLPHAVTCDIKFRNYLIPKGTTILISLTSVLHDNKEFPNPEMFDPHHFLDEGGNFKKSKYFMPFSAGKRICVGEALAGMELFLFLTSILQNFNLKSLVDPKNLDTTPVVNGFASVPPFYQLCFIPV

[2H]C([2H])([2H])c1ccc(CCl)cc1 [α-Chloromethyl-p-xylene-α′-^2H3]
nmol TP (CYP2B6): 14* nmol
nmol p-Alc (CYP2B6): 1.82* nmol
nmol p-Ald + TolA (CYP2B6): 12* nmol
nmol TP (CYP1A2 [1]): 47 nmol
nmol p-Alc (CYP1A2 [1]): 1.3* nmol
nmol p-Ald + TolA (CYP1A2 [1]): 46 nmol
nmol TP (CYP2B1): 21.3 nmol
nmol p-Alc (CYP2B1): 1.3* nmol
nmol p-Ald + TolA (CYP2B1): 20.0* nmol
nmol TP (CYP2C9): 1.8* nmol
nmol p-Alc (CYP2C9): 0.10* nmol
nmol p-Ald + TolA (CYP2C9): 1.7* nmol
nmol TP (CYP2E1): 31 nmol
nmol p-Alc (CYP2E1): 0.78* nmol
nmol p-Ald + TolA (CYP2E1): 30 nmol
nmol TP (CYP4B1): 17.0* nmol
nmol p-Alc (CYP4B1): 15.2* nmol
nmol p-Ald + TolA (CYP4B1): 1.87* nmol

CCOc1ccc2ccc(=O)oc2c1 [7-ethoxycoumarin]
Energy difference between O-deethylation and aromatic hydroxylation pathways (CYP1A2 [2]): about 1.8 kcal/mol

Cc1ccc(C)cc1 [CH3, p-xylene]
Intermolecular Competitive ^D(V/K) (CYP2E1; pH 7.4): 1.18 ± 0.03
Intermolecular Noncompetitive ^D(V/K) (CYP2E1; pH 7.4): 1.19 ± 0.01
Intermolecular Noncompetitive ^DV (CYP2E1; pH 7.4): 1.05 ± 0.03
Intramolecular KIE (kH/kD) (CYP2E1; pH 7.4): 5.45 ± 0.05
Benzylic hydroxylation, share of total oxidation / metabolism (CYP [3]; depending on the source of CYP): ~95%

CCCC(CCC)C(=O)O [Valproate]
ΔΔG (experimental) (CYP [4]): −2.48

[2H]C([2H])([2H])Oc1ccc(C)cc1 [p-Methylanisole-α-^2H3]
nmol p-CR (CYP2B6): 9* nmol
nmol p-MBA (CYP2B6): 2.39* nmol
nmol total TP (CYP2B6): 11 nmol
nmol p-CR (CYP2B1): 3.3* nmol
nmol p-MBA (CYP2B1): 0.9* nmol
nmol total TP (CYP2B1): 4.2* nmol
Vmax (CYP2E1): 18.0 nM/min
nmol p-CR (CYP2E1): 18.2* nmol
nmol p-MBA (CYP2E1): 10.6* nmol
nmol total TP (CYP2E1): 29 nmol
nmol p-CR (CYP4B1): 52* nmol
nmol p-MBA (CYP4B1): 48* nmol
nmol total TP (CYP4B1): 100* nmol

Cc1ccc(Br)cc1 [Br, p-bromotoluene]
Intramolecular KIE (kH/kD) (CYP1A2 [1]; pH 7.4): 6.83 (8)
Intramolecular KIE (kH/kD) (CYP2B1): 8.02
Intramolecular KIE (kH/kD) (P450cam): 8.3
Intramolecular KIE (kH/kD) (CYP2C9; human, pH 7.4): 6.9
Intermolecular Noncompetitive ^DV (CYP2E1; pH 7.4): 1.07 ± 0.04

Cc1ccccc1 [H, toluene]
Intramolecular KIE (kH/kD) (CYP1A2 [1]; pH 7.4): 6.1 (4)
Intramolecular KIE (kH/kD) (CYP2B1): 7
Intramolecular KIE (kH/kD) (CYP2E1; pH 7.4): 6.1 (1)
Isotope effect measured by White and McCarthy (CYP [3]): 2

COc1ccccc1 [Anisole]
Relative difference in energy for p-hydroxylation and demethylation (CYP [3]; calculated from the product ratios of Lindsay Smith et al.): 0.6 kcal/mol
Intermolecular isotope effect (Lindsay Smith et al.) (CYP [3]; deuteration of the methyl group): 7
Ratio of p-hydroxyanisole to phenol, average (CYP [3]; four microsomal systems (Lindsay Smith)): 2.9
Experimental Ratio (CYP [5]; human): 10.6

CCCCCCCC [Octane]
Average P value (primary KIE) (CYP [3]; Jones et al. 1987): 7.6
ΔΔG (experimental) (CYP [4]): −3.13

[2H]C([2H])([2H])c1ccccc1OC [o-Methylanisole-α-^2H3]
nmol 4M3MPh (CYP2B6): 3.3 nmol
nmol TP (CYP2B6): 22 nmol
nmol o-CR (CYP2B6): 17* nmol
nmol o-MBA (CYP2B6): 0.95* nmol
nmol 4M3MPh (CYP1A2 [1]): 11.5* nmol
nmol TP (CYP1A2 [1]): 17.2 nmol
nmol o-CR (CYP1A2 [1]): 4.2* nmol
nmol o-MBA (CYP1A2 [1]): 1.52* nmol
nmol 4M3MPh (CYP2B1): 13* nmol
nmol TP (CYP2B1): 17* nmol
nmol o-CR (CYP2B1): 2.8* nmol
nmol o-MBA (CYP2B1): 0.36* nmol
nmol TP (CYP2C9): 3.9* nmol
nmol o-CR (CYP2C9): 1.4* nmol
nmol o-MBA (CYP2C9): 0.7* nmol
nmol 4M3MPh (CYP2E1): 13* nmol
nmol TP (CYP2E1): 19* nmol
nmol o-CR (CYP2E1): 4.7* nmol
nmol o-MBA (CYP2E1): 0.99* nmol
nmol 4M3MPh (CYP4B1): 1.9* nmol
nmol TP (CYP4B1): 55 nmol
nmol o-CR (CYP4B1): 50* nmol
nmol o-MBA (CYP4B1): 3.5* nmol

[2H]C([2H])([2H])c1ccc(Br)cc1 [Br-d3]
V/K (CYP2E1): 0.027 min⁻¹
Vmax (CYP2E1): 54.8 nM/min

CCc1ccccc1 [Ethylbenzene]
Experimental Ratio (CYP [5]; Arom/benz): 0.086

[2H]C([2H])([2H])c1ccc(Cl)cc1 [Cl-d3]
V/K (CYP2E1): 0.020 min⁻¹
Vmax (CYP2E1): 31.4 nM/min

Cc1ccc(Cl)cc1 [Cl, p-chlorotoluene]
Intermolecular Competitive ^D(V/K) (CYP2B1): 3.21 ± 0.02
Intramolecular KIE (kH/kD) (CYP2B1): 8.1 and 8.06 ± 0.12
Intramolecular KIE (kH/kD) (P450cam): 6.5
Intramolecular KIE (kH/kD) (CYP2C9; human, pH 7.4): 6.2
Intermolecular Noncompetitive ^DV (CYP2E1; pH 7.4): 1.61 ± 0.01

[2H]Cc1ccc(C[2H])cc1 [CH2D, p-Xylene-α-^2H1-α′-^2H1]
Intramolecular KIE (kH/kD) (CYP1A2 [1]): 5.59 (1)
Intramolecular KIE (kH/kD) (CYP2B1): 6.23
Intramolecular KIE (kH/kD) (P450cam): 6.0
Intramolecular KIE (kH/kD) (CYP2C9): 5.9
Intramolecular KIE (kH/kD) (CYP2E1): 5.45 (5)

Cc1ccc(C#N)cc1 [CN, p-tolunitrile]
Intramolecular KIE (kH/kD) (CYP1A2 [1]; pH 7.4): 10.1 (2)
Intramolecular KIE (kH/kD) (CYP2B1): 11.9
Intramolecular KIE (kH/kD) (P450cam): 11.6
Intramolecular KIE (kH/kD) (CYP2C9; human, pH 7.4): 11.1
Intramolecular KIE (kH/kD) (CYP2E1; pH 7.4): 10.1 (1)
